Test results published in article PMC11073428, “The activity of pyrazolo[4,3-e][1,2,4]triazine and pyrazolo[4,3-e]tetrazolo[1,5-b][1,2,4]triazine sulphonamide derivatives in monolayer and spheroid breast cancer cell cultures” (Journal of Enzyme Inhibition and Medicinal Chemistry, 2024).

Assays:
[1] = tested on: caspase 3/7 in MDA-MB-231 cells; assay: Activity of caspase 3/7, MDA-MB-231; type: cell-based, human; conditions: 24 h
Method: (§1) MCF-7 and MDA-MB-231 cells were plated in six-well plates at density 1 × 10^6 and cultured in DMEM for 24 h. […] Then to identify the involvement of caspase family in inducing apoptosis, cells were pre-treated with Z-VAD-FMK (100 µM) 2 h before adding compounds[28]. The activation of caspases 9, 10, and 3/7 was detected as described before.

[2] = tested on: caspase 10 in MDA-MB-231 cells; assay: Activity of caspase 10, MDA-MB-231; type: cell-based, human; conditions: 24 h
Method: as §1

[3] = tested on: MCF-7 breast cancer cells; assay: Autophagy Assay, Red, flow cytometry, MCF-7; type: cell-based, human
Method: (§2) The effect of novel compound 3b at 0.25 µM and 0.5 µM concentration on the induction of autophagy in MCF-7 and MDA-MB-231 pre-treated 1 h with or not autophagy inhibitor 3-MA for 1 h (3-methyladenine, Sigma-Aldrich, St. Louis, MO) at 1 mM concentration[29] was assessed by ICT’s Autophagy Assay, Red using a flow cytometer. The test was performed as previously. Briefly, cells were washed with PBS and suspended in 490 µL of PBS. To each probe, 10 µL of diluted Autophagy Probe, Red solution was added. Prepared samples were incubated at 37 °C for 60 min. Following incubation, cells were suspended in diluted cellular assay buffer and centrifuged. Then, supernatant was removed, and cells were resuspended in diluted cellular assay buffer and centrifuged again. This step was repeated three times. Finally, cell pellet was resuspended in 0.5 mL of diluted cellular assay buffer. The analysis was performed with a flow cytometer (excitation/emission 590 nm/620 nm).

ROS in MDA-MB-231 cells = assay: Total ROS activity, flow cytometry, MDA-MB-231; type: cell-based, human; conditions: for cells with ROS: 24 h
Method: In brief, cells were washed two times with cold PBS solution and incubated in a solution of ROS Green dye in Assay Buffer and incubated for 1 h in optimal cell growth parameters, protected from light. After incubation, cells were washed with assay buffer. Subsequently, fluorescence emission intensities at 490 nm excitation and 520 nm emission were recorded in 500 μL assay buffer using flow cytometer BD FACSCanto II flow cytometer and FACSDiva software (BD Biosciences Systems, San Jose, CA).

MDA-MB-231 spheroids = assay: 3D spheroid culture, MDA-MB-231; type: cell-based, human; conditions: 0.25 µM and 0.5 µM
Method: The 3D cell culture was carried out with 6-Well Bio-Assembler Kit in accordance with the manufacturer’s instructions (Greiner Bio-One GmbH, Frickenhausen, Germany). First, MCF-7 and MDA-MB-231 were cultured in 2D using procedure and supplied to 80% confluency and treated with nanoshuttle at concentration of 1 µL/10 000 cell and incubated overnight. Following incubation, the medium was removed, and the cells were detached by trypsin–EDTA solution and resuspended in DMEM. The cells were counted using Scepter 2.0 Handheld Automated Cell Counter (Merck, Darmstadt, Germany) and plated at the concentration 1 × 10^6 cells per well in six-well plate. Then, cells were gently tilted in the flask to evenly distribute the nanoparticle and incubated (37 °C, 5% CO2, 95–98% humidity) for 1 h with magnet on the top of the plate. The cells self-assemble to spheroids. The obtained 3D cell culture was incubated until analysis.
The visualisation of the morphological changes in 3D cell culture of MCF-7 and MDA-MB-231 was evaluated using microscope (Nikon Eclipse Ti, Tokyo, Japan).
The mean ± standard deviation (SD) for all data is presented. One-way and two-way analysis of variance (ANOVA) was conducted followed by Dunnett’s test. GraphPad 8.0.1 Prism software (GraphPad Software, San Diego, CA) was used for calculation. The analysis of spheroids area was carried out using ImageJ software from the NIH (Bethesda, MD).

[4] = tested on: caspase 3/7 in MCF-7 cells; assay: Activity of caspase 3/7, MCF-7; type: cell-based, human; conditions: MCF-7, 24 h; cell line does not express caspase 3
Method: as §1

[5] = tested on: MDA-MB-231 breast cancer cells; assay: Apoptosis, annexin V-FITC/PI flow cytometry, MDA-MB-231; type: cell-based, human; conditions: 24 h
Method: The analysis was performed using flow cytometry Apoptosis Detection Kit II (BD Biosciences, San Diego, CA) as described previously.

mTOR in MDA-MB-231 cells = assay: Anti-mTOR antibody flow cytometry, MDA-MB-231; type: cell-based, human; conditions: MDA-MB-231, 0.25 µM and 0.5 µM, 24 h
Method: (§3) To evaluate the molecular mechanism of induction of apoptosis of tested compounds, the level of p53, NF-κB, mTOR, Bax, and beclin-1 was measured using appropriate antibody according to the manufacturer’s instruction. In brief, tryspinised cells were centrifuged, then supernatant was discarded, and cells were suspended in 4% FA (formaldehyde). Prepared samples were incubated 15 min at RT. Following incubation, the 2.5 mL PBS was added to each sample and centrifuged. Then, supernatant was discarded, and cells were resuspended in 90% ice-cold methanol to perform permeabilisation and left for 1 h in ice. To remove methanol, cells were rinsed with excess PBS by centrifugation. Following centrifugation, the supernatant was discarded. Then, cells were resuspended in 100 µL of appropriate diluted (1:100 in PBS) antibody conjugate (p53 (7F5) Rabbit mAb – Alexa Fluor 488 Conjugate #5429 Cell Signalling Technology, Danvers, MA; NF-κB p65 (D14E12) XP Rabbit mAb – Alexa Fluor 647 Conjugate #8801 Cell Signalling Technology, Danvers, MA; mTOR (7C10) Rabbit mAB – Alexa Fluor 647 #5048 Cell Signalling Technology, Danvers, MA; FITC Anti-Bax antibody (T22-A) #ab139543, Abcam, Cambridge, UK) and incubated 1 h in the dark at RT. Afterwards, cells were washed by centrifugation in 2 mL of incubation buffer. Finally, supernatant was removed and 300 µL PBS was added to each sample and pipetted. […]

[6] = tested on: MDA-MB-231 breast cancer cells; assay: Autophagy Assay, Red, flow cytometry, MDA-MB-231; type: cell-based, human
Method: as §2

[7] = tested on: NF-κB in MDA-MB-231 cells; assay: Anti-NF-κB antibody flow cytometry, MDA-MB-231; type: cell-based, human; conditions: 24 h
Method: as §3

[8] = tested on: MCF-7 breast cancer cells; assay: MTT viability assay, MCF-7
Method: Following 24-h incubation with tested compounds, the medium was discarded from the cell cultures. Then, into each well with cells was added 1 mL of PBS and 50 µL of MTT solution (5 mg per mL). Cells were incubated at 37 °C and 5% CO2 in humidified atmosphere for a defined time appropriate for each cell line. After incubation, the solution above the cells was removed and obtained purple formazan crystals were dissolved in 1 mL DMSO. The absorbance was read at OD = 570 nm on Evolution 201 Spectrophotometer (Thermo Scientific, Waltham, MA).

SMILES: Cc1nn(-c2ccc(S(=O)(=O)N[C@@H](CO)Cc3ccccc3)cc2)c2nn3nnnc3nc12 [Compound 3b, (R)-N-(1-hydroxy-3-phenylpropan-2-yl)-4-(7-methyl-5H-pyrazolo[4,3-e]tetrazolo[1,5-b][1,2,4]triazin-6-yl)benzenesulfonamide]
- cells with active executive caspases (3 and 7) ([1]; MDA-MB-231, 0.25 µM): 23.8 ± 0.8%
- cells with active executive caspases (3 and 7) ([1]; MDA-MB-231, 0.5 µM): 68.4 ± 1.2%
- cells with active caspase 10 ([2]; MDA-MB-231, 0.25 µM): 21.2 ± 1.4%
- cells with active caspase 10 ([2]; MDA-MB-231, 0.5 µM): 50.8 ± 3.8%
- autophagic cells ([3]; MCF-7, 0.5 µM, 24 h): 30 ± 2.1%
- autophagic cells with 3-MA relative to 3b alone (in words) ([3]; MCF-7, 3b 0.5 µM + 3MA vs 3b 0.5 µM): one and a half times less autophagic cells
- cells with ROS (ROS in MDA-MB-231 cells; MDA-MB-231, 0.25 µM): 7.0 ± 0.6%
- increase of ROS level compared to control (ROS in MDA-MB-231 cells; MDA-MB-231, 0.5 µM): four
- cells with ROS (ROS in MDA-MB-231 cells; MDA-MB-231, 0.5 µM): 9.4 ± 0.7%
- effect on spheroid formation (in words) (MDA-MB-231 spheroids): slower formation of spheroids compared to untreated cells
- effect on executive caspase 7 (in words) [4]: increase in activity of executive caspase 7
- apoptotic cells ([5]; MDA-MB-231, 0.25 µM): 11.8 ± 1.3%
- early and late apoptotic cells ([5]; MDA-MB-231, 0.5 µM): 29.5 ± 0.9%
- effect on cells with active mTOR (in words) (mTOR in MDA-MB-231 cells): decrease in the number of cells with active mTOR
- autophagic cells (rate of autophagosomes) ([6]; MDA-MB-231, 0.5 µM, 24 h): 47.1 ± 0.6%
- autophagic cells in presence of 3-MA ([6]; MDA-MB-231, 3b 0.5 µM + 3-MA (1 mM, 1 h pre-treatment)): 25.9 ± 4.7%
- cells with active NF-κB ([7]; MDA-MB-231, 0.25 µM): 94.8 ± 0.6%
- cells with active NF-κB ([7]; MDA-MB-231, 0.5 µM): 89.6 ± 4.1%
- IC50 ([8]; Homo sapiens, MCF7, 24 h, read-out: Cytotoxicity IC50 MCF-7): 250 ± 70 nM
- times stronger than the corresponding sulphonyl derivative (2a or 2b), MCF-7 ([8]; ratio of cytotoxicity, 3a vs 2a, 3b vs 2b): 22 times
